Laboratory results as given in patent publication US20240226005A1, “NANO- AND MICRO-FORMULATIONS” (Huxley Health Inc., priority 2023, published 2024).
Entries after “also recorded” stand apart in the source; their conditions may differ.

What was measured:
[1] = system: human glioma U251 GBM cells; experiment: Cellular uptake, flow cytometry and fluorescence microscopy; format: cell-based; conditions: flow cytometry and fluorescence imaging
Procedure: Cellular uptake studies: The human glioma U251 GBM cells were cultured at 5×10^4 cells per well in 12 plates using EMEM media supplemented with 10% FBS, 0.5% PenStrep and 1% w/non-essential amino acids (NEAA); then, washed with 0.05% trypsin. The cells were cells were incubated overnight at 37° C. in a humidified 5% CO2 atmosphere. The cells were treated with NEs loaded with bufotenine and Nile Red dye diluted to 0.1 mg/ml in PBS. Untreated cells were used as a negative control a long with a solution of unformulated API and Nile Red. This was done to serve as a sort of a positive control against the negative control of the untreated cells. After 24 h exposure, cells were washed twice with PBS and then collected in PBS-EDTA media (2 mM). The flow cytometry was performed using a BD C6 Flow Cytometry apparatus at a wavelength of 488 nm laser. For each experiment 10,000 cells were gated per sample and each sample was performed in triplicate. These cells prepared as such were used for fluorescence analysis. Fluorescence images were taken using a Leica CRT 6500 at the desired magnification using Texas Red Set (Leica TX2 ET Set) filter and exciting the samples using a continuous wave Ar+ laser at 488 nm.

[2] = system: L2, SW982, HCT116, 231 cells; experiment: Cytotoxicity assay (MTT) on four cell lines; format: cell-based, rat, human; conditions: 48 h, 10- to 10000-fold dilutions of 1 mg/g
Procedure: Four different cell lines were used for the evaluation of the tested formulations and unformulated bufotenin. • L2:Rat lung cells (Normal) https://www.atcc.org/products/ccl-149 • SW982: The human synovial sarcoma cells https://www.atcc.org/products/htb-93 • HCT116: The human colon cancer cells https://www.atcc.org/products/ccl-247 • 231: The human breast cancer cells https://www.atcc.org/products/crm-htb-26
Cytotoxicity assay: The effect of the NEs on cell viability was measured by MTT assay following the method by Mosmann and colleagues. Briefly, the cells were seeded in a 96 well micro titer plate (100 μL per well) with replications. After 24 h, cells were treated with 50 μL of the analyte at four different dilutions (10,100,1000, and 10000-fold), added directly to wells with culture media. The starting concentration for Kolliphor-Bf-SNEDDS, Kolliphor-Bfa-t-SNEDDSand unformulated bufoteninin DMSO were 1 mg·g^−1. After incubation for 48 h, the media was discarded. 100 μL of 0.5 mg·mL^−1 MTT stock solution was added to each well and incubated for 4 h at 37° C. The obtained formazan crystals were solubilized with DMSO, and the absorbance was measured at 570 nm using a microplate reader (SpectraMax M5e, Molecular Devices, USA). Cell viability (%) was calculated as a ratio of absorbance (A570) in treated cells to absorbance in control cells (intact cells without treatment) (A570).

In the case of `CN(C)CCc1c[nH]c2ccc(O)cc12` [unformulated bufotenin, 5-Hydroxy-N,N-dimethyltryptamine], the “cellular uptake (in words)” value [1] is reported as “no unformulated bufotenin penetrated the glioma cells; also recorded: negligible” and the “cytotoxicity / cell viability” value [2] is reported as “no effect on their viability”.
